Laboratory results taken from US9783530B2, “Factor Xla inhibitors” (Merck Sharp & Dohme Corp., priority 2014, dated 2017).

Columns and labels:
[1] = molecular target: purified human Factor XIa (Homo sapiens (Human), UniProt P03951); test: Factor XIa Assay; format: biochemical; conditions: purified human Factor XIa 40 pM, substrate Z-Gly-Pro-Arg-AFC, pH 7.4; read-out: FXIa IC50
Procedure: The effectiveness of a compound of the present invention as an inhibitor of Coagulation Factor XIa can be determined using a relevant purified serine protease, and an appropriate synthetic substrate. The rate of hydrolysis of the chromogenic or fluorogenic substrate by the relevant serine protease was measured both in the absence and presence of compounds of the present invention. Assays were conducted at room temperature or at 37° C. […] A decrease in the rate of fluorescence change in the presence of inhibitor is indicative of enzyme inhibition. Such methods are known to one skilled in the art. […]
Factor XIa determinations were made in 50 mM HEPES buffer at pH 7.4 containing 150 mM NaCl, 5 mM CaCl2, and 0.1% PEG 8000 (polyethylene glycol; JT Baker or Fisher Scientific). Determinations were made using purified human Factor XIa at a final concentration of 40 pM (Sekisui Diagnostics) and he synthetic substrate, Z-Gly-Pro-Arg-AFC, TFA salt (Sigma #C0980) at a concentration of 100 µM.
Activity assays were performed by diluting a stock solution of substrate at least tenfold to a final concentration ≦0.1 Km into a solution containing enzyme or enzyme equilibrated with inhibitor. Times required to achieve equilibration between enzyme and inhibitor were determined in control experiments. Initial velocities of product formation in the absence (Vo) or presence of inhibitor (Vi) were measured. Assuming competitive inhibition, and that unity is negligible compared Km/[S], [I]/e, and [I]/e (where [S], [I], and e respectively represent the total concentrations, of substrate, inhibitor and enzyme), the equilibrium constant (Ki) for dissociation of the inhibitor from the enzyme can be obtained from the dependence of Vo/Vi on [I] shown in the following equation.

[2] = molecular target: purified Human plasma kallikrein (Homo sapiens (Human), UniProt P03952); test: Kallikrein Assay; format: biochemical; conditions: purified Human plasma kallikrein 0.5 nM, substrate Acetyl-K-P-R-AFC, pH 7.4; read-out: P. KLK IC50
Chain of purified Human plasma kallikrein (P03952 391-638): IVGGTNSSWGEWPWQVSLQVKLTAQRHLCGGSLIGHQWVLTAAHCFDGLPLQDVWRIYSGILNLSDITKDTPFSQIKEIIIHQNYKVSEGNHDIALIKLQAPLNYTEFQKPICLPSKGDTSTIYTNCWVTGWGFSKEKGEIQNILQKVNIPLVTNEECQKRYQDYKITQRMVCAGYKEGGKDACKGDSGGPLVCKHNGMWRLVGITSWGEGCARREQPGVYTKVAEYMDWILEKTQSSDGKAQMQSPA
Chain of purified Human plasma kallikrein (P03952 20-390 partner): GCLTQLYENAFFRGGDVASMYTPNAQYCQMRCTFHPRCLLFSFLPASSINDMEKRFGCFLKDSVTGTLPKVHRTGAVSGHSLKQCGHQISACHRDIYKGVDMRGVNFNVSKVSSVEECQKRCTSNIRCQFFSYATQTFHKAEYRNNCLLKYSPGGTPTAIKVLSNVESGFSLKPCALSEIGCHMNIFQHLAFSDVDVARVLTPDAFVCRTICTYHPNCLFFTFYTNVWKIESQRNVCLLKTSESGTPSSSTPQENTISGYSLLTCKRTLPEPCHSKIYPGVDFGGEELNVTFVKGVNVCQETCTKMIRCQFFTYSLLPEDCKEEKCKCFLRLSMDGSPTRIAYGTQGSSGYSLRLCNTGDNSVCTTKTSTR
Procedure: The effectiveness of a compound of the present invention as an inhibitor of Kallikrein can be determined using a relevant purified serine protease, and an appropriate synthetic substrate. The rate of hydrolysis of the chromogenic or fluorogenic substrate by the relevant serine protease was measured both in the absence and presence of compounds of the present invention. Assays were conducted at room temperature or at 37° C. […] A decrease in the rate of fluorescence change in the presence of inhibitor is indicative of enzyme inhibition. Such methods are known to one skilled in the art. The results of this assay are expressed as the inhibitory constant, Ki.
Kallikrein determinations were made in 50 mM HEPES buffer at pH 7.4 containing 150 mM NaCl, 5 mM CaCl2, and 0.1% PEG 8000 (polyethylene glycol; Fisher Scientific). Determinations were made using purified Human plasma kallikrein at a final concentration of 0.5 nM (Enzyme Research Laboratories) and the synthetic substrate, Acetyl-K-P-R-AFC (Sigma # C6608) at a concentration of […].
Activity assays were performed by diluting a stock solution of substrate at least tenfold to a final concentration ≦0.2 Km into a solution containing enzyme or enzyme equilibrated with inhibitor. Times required to achieve equilibration between enzyme and inhibitor were determined in control experiments. The reactions were performed under linear progress curve conditions and fluorescence increase measured at 405 Ex/510 Em nm. Values were converted to percent inhibition of the control reaction (after subtracting 100% Inhibition value). IC50 was determined by inflection point from a four parameter logistic curve fit. Ki was calculated using the Cheng Prusoff equation, Ki=IC50/(1+([S]/Km)).

Chain of purified human Factor XIa (P03951 388-625): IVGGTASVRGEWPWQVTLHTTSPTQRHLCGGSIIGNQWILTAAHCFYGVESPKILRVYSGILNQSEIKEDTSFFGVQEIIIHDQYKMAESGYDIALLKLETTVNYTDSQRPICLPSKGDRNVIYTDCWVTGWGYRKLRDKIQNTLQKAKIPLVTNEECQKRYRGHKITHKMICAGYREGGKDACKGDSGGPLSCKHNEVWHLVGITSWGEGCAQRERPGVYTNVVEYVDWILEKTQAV
Chain of purified human Factor XIa (P03951 19-387 partner): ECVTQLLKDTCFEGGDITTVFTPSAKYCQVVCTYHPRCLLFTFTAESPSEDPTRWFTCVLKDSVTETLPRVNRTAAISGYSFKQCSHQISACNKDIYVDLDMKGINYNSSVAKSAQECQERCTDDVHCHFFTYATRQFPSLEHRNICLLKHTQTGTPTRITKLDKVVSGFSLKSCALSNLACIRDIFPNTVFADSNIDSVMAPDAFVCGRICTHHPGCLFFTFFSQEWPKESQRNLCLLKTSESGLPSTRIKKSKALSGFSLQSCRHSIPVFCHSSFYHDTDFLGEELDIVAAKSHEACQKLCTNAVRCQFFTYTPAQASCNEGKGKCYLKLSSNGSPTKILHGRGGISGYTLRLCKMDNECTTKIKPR

Structure (SMILES) | IC50 [1] [nM] | IC50 [2] [nM]
O=C(O)c1ccc(NC(=O)[C@@H](Cc2ccccc2)c2ccc(-c3cc(Cl)ccc3-n3cnnn3)c[n+]2[O-])cc1 [Example 1, 4-{[(2S)-2-{5-[5-chloro-2-(1H-tetrazol-1-yl)phenyl]-1-oxidopyridin-2-yl}-3-phenylpropanoyl]amino} benzoic acid] | 32.7 | 83.1
O=C(O)c1ccc(NC(=O)[C@@H](Cc2ccc(F)cc2)c2ccc(-c3cc(Cl)ccc3-n3cnnn3)c[n+]2[O-])cc1 [Example 7, 4-{[(2S)-2-{5-[5-chloro-2-(1H-tetrazol-1-yl)phenyl]-1-oxidopyridin-2-yl}-3-(4-fluorophenyl)propanoyl]amino}benzoic acid] | 14.2 | 67.1
O=C(Cc1ccc(-c2c(F)ccc(Cl)c2F)c[n+]1[O-])Nc1ccc(C(=O)O)cc1 [Example 9, 4-({[5-(3-chloro-2,6-difluorophenyl)-1-oxidopyridin-2-yl]acetyl}amino) benzoic acid] | 89.2 | 1570
O=C(Cc1ccc(-c2cc(Cl)ccc2-n2cnnn2)c[n+]1[O-])Nc1ccc(C(=O)O)cc1 [Example 14, 4-[({5-[5-chloro-2-(1H-tetrazol-1-yl)phenyl]-1-oxidopyridin-2-yl}acetyl)amino] benzoic acid] | 18.5 | 1350
O=C(O)c1ccc(NC(=O)[C@@H](CC2CC2)c2ccc(-c3cc(Cl)ccc3-n3cnnn3)c[n+]2[O-])cc1 [Example 28, 4-{[(2S)-2-{5-[5-chloro-2-(1H-tetrazol-1-yl)phenyl]-1-oxidopyridin-2-yl}-3-cyclopropylpropanoyl]amino}benzoic acid] | 37 | 5820

Molecules with a lower IC50 [1], results first:

IC50 [1] [nM] | IC50 [2] [nM] | Structure (SMILES)
8.32 | 42.3 | Cc1cc(C(Cc2ccccc2)C(=O)Nc2ccc(C(=O)O)cc2)[n+]([O-])cc1-c1c(F)ccc(Cl)c1F (centres unmarked) [Example 25, 2-(1-((4-carboxyphenyl)amino)-1-oxo-3-phenylpropan-2-yl)-5-(3-chloro-2,6-difluorophenyl)-4-methylpyridine 1-oxide]
3.63 | 18.2 | O=C(O)c1ccc(NC(=O)[C@H](Cc2ccccc2)c2ccc(-c3c(F)ccc(Cl)c3F)c[n+]2[O-])cc1 [Example 4, 4-({(2R)-2-[5-(3-chloro-2,6-difluorophenyl)-1-oxidopyridin-2-yl]-3-phenylpropanoyl}amino) benzoic acid]
0.26 | 3.4 | O=C(O)c1ccc(NC(=O)[C@H](Cc2ccc(F)cc2)c2ccc(-c3cc(Cl)ccc3-n3cnnn3)c[n+]2[O-])cc1 [Example 8, 4-{[(2R)-2-{5-[5-chloro-2-(1H-tetrazol-1-yl)phenyl]-1-oxidopyridin-2-yl}-3-(4-fluorophenyl)propanoyl]amino}benzoic acid]
0.16 | 1.2 | O=C(O)c1ccc(NC(=O)[C@H](Cc2ccccc2)c2ccc(-c3cc(Cl)ccc3-n3cnnn3)c[n+]2[O-])cc1 [Example 2, 4-{[(2R)-2-{5-[5-chloro-2-(1H-tetrazol-1-yl)phenyl]-1-oxidopyridin-2-yl}-3-phenylpropanoyl]amino} benzoic acid]
0.14 | 23.8 | O=C(O)c1ccc(NC(=O)[C@H](CC2CC2)c2ccc(-c3cc(Cl)ccc3-n3cnnn3)c[n+]2[O-])cc1 [Example 27, 4-{[(2R)-2-{5-[5-chloro-2-(1H-tetrazol-1-yl)phenyl]-1-oxidopyridin-2-yl}-3-cyclopropylpropanoyl]amino}benzoic acid]
